Here are results for 2 compounds from article PMC5888987 (Carcinogenesis, 2018).

Common to all, as to type: biochemical
One experiment addresses DNMT3A (Homo sapiens, UniProt Q9Y6K1). As to the kind of experiment: AlphaScreen methyltransferase assay with […] SAM. In general terms: Bead proximity is the source of the signal in Alpha formats.
A further experiment addresses mTOR (Homo sapiens, UniProt P42345). Briefly: FRET-based Z-LYTE kinase assay.
The next experiment addresses DNMT1 (Homo sapiens, UniProt P26358). As to the kind of experiment: AlphaScreen methyltransferase assay with […] SAM.
The target of a further experiment is DNMT3B (Homo sapiens, UniProt Q9UBC3). Briefly: AlphaScreen methyltransferase assay with […] SAM.

DNMT3A, sequence (Q9Y6K1 whole entry, looked up): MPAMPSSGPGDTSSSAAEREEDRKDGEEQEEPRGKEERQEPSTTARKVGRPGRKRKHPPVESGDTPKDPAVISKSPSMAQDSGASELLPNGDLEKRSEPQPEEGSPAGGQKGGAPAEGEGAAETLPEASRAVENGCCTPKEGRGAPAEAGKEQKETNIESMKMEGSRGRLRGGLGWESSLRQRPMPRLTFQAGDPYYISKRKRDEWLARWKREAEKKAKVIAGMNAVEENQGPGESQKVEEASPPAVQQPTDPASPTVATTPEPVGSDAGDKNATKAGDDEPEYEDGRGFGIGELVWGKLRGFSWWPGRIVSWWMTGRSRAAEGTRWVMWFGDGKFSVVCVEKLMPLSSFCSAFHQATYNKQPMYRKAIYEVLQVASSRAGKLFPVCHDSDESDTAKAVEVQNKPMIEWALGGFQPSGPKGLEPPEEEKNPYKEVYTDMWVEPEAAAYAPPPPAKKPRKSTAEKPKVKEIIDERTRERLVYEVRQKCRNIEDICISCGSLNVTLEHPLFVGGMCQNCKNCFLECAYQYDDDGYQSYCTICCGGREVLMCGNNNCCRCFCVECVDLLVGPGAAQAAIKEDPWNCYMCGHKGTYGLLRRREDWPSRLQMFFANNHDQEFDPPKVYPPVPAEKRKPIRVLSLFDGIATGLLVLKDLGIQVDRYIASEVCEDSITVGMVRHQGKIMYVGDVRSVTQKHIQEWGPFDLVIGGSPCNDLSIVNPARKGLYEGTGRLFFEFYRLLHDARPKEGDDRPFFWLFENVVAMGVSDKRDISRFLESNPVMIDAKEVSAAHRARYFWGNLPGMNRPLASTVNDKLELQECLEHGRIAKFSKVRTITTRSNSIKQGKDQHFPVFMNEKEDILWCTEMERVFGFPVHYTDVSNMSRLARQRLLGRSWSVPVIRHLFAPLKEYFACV
DNMT1, sequence (P26358 whole entry): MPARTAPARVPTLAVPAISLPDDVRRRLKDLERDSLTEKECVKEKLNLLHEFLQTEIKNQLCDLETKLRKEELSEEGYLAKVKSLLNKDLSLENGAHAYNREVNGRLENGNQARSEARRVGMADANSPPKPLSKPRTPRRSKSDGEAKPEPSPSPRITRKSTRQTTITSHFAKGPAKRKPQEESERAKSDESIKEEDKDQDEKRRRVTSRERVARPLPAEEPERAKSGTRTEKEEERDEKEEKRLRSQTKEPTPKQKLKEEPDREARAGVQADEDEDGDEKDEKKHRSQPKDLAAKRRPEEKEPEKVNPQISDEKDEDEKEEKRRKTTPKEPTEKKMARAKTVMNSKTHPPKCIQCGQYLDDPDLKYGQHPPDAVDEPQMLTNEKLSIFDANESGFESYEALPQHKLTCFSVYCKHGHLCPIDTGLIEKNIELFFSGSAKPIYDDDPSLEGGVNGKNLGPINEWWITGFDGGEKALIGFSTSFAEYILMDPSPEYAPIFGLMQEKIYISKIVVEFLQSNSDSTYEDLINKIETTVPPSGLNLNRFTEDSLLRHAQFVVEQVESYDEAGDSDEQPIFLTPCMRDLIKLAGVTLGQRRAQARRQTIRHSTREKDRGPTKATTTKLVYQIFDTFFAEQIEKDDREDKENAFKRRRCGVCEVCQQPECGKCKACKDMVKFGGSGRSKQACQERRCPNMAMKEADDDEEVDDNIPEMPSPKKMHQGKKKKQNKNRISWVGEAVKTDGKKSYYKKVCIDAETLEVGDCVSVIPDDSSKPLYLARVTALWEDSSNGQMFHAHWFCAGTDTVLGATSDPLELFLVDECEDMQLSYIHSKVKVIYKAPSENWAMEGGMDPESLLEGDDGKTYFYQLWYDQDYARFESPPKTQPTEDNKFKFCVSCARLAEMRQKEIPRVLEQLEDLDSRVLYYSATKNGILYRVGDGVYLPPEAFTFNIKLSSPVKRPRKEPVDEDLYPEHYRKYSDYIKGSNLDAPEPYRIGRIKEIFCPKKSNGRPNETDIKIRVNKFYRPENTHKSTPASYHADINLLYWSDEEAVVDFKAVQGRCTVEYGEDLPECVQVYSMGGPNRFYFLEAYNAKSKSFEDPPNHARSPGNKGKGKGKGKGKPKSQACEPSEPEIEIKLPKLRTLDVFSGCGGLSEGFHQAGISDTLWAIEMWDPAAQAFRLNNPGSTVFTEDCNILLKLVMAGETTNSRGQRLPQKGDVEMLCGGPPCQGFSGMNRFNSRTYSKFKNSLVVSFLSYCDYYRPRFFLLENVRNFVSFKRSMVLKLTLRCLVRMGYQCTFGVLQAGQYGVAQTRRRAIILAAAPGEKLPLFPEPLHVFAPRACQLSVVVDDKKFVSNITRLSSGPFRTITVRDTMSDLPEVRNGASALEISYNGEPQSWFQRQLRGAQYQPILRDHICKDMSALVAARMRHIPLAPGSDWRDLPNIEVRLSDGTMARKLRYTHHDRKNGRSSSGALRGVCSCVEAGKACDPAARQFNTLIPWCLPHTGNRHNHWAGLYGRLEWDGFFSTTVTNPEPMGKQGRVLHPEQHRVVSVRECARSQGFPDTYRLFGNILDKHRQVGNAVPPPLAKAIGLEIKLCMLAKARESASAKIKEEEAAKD

For orientation: IC50 means the midpoint of a concentration-inhibition curve. Read a high IC50 as a need for much substance. As to `C/C=C(/C=O)[C@@H](CC=O)CC(=O)OCCc1ccc(O)c(O)c1` [DOA, decarboxymethyl oleuropein aglycone], the IC50 turned out to be 5.7 µM against DNMT3A, 2.6 µM against mTOR, 11.5 µM against DNMT1 and 5.2 µM against DNMT3B.

On to `Nc1ncnc2c1ncn2[C@@H]1O[C@H](CSCC[C@H](N)C(=O)O)[C@@H](O)[C@H]1O` [SAH, S-adenosyl-l-homocysteine, reference compound], for which the IC50 was 5.8 µM on DNMT3A and 2.8 µM on DNMT3B.
